In patent US20210330611A1, “THERAPY FOR NEUROLOGICAL DISEASES/DISORDERS” (priority 2020, published 2021):
pIC50: −log10 of the molar value. Where two headings read alike, the source gives them in different places.

Legend:
[1] = tested on: LPS-induced microglia activation; experiment: Image-based assay of LPS-induced microglia activation (HTS and dose response); assay type: cell-based, rat; conditions: for inhibition at 10 µM: Rattus norvegicus, Microglia, read-out: LPS % inhibition; for pIC50: read-out: LPS IC50
primary rat microglia [2] = experiment: Cell toxicity (dead cells, size <150 μm2) in coated fibrin (cFib) assay;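 note: share of dead cells sized under 150 µm2 at 10 µM in fibrin-stimulated microglia HTS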
[3] = tested on: fibrin-induced microglia activation; experiment: Image-based assay of fibrin-induced microglia activation (HTS and dose response); assay type: cell-based, rat; conditions: for inhibition at 10 µM: Rattus norvegicus, Microglia, read-out: Fibrin % inhibition; for pIC50: read-out: Fibrin IC50
primary rat microglia [4] = experiment: Cell toxicity (dead cells, size <150 μm2) in LPS assay
[5] = tested on: fibrin- and LPS-induced microglia activation; experiment: cells; assay type: cell-based, rat; conditions: for Hit: HTS hit classification
[6] = primary HTS, 10 μM, LPS-stimulated primary microglia
[7] = primary HTS, 10 μM, fibrin assay, dead cells size <150 μm2
[8] = primary HTS, 10 μM, fibrin-stimulated primary microglia
[9] = primary HTS, 10 μM, LPS assay, dead cells size <150 μm2
[10] = quadrant by fibrin and LPS inhibition in HTS of 1907 compounds
[11] = primary microglia HTS, 10 μM, LPS-stimulated, cell size >800 μm^2 as marker of activation
[12] = primary microglia HTS, 10 μM, fibrin assay, cell size <150 μm^2 as marker of toxicity
[13] = primary microglia HTS, 10 μM, fibrin-stimulated, cell size >800 μm^2 as marker of activation
[14] = primary microglia HTS, 10 μM, LPS assay, cell size <150 μm^2 as marker of toxicity
[15] = HTS of 1907 compounds, quadrant by fibrin and LPS inhibition
[16] = primary microglia HTS, LPS stimulation, increased cell size (>800 μm^2) as marker of activation
[17] = primary microglia HTS, fibrin stimulation, decreased size (<150 μm^2) as marker of toxicity
[18] = primary microglia HTS, fibrin stimulation, increased cell size (>800 μm^2) as marker of activation
[19] = primary microglia HTS, LPS stimulation, decreased size (<150 μm^2) as marker of toxicity
[20] = 48 h, primary microglia HTS, LPS stimulation, increased cell size (>800 μm^2) as marker of activation
[21] = Table 1, dose response 0.001-20 μM, triplicates, primary rat microglia, 48 h
[22] = dose response, LPS-induced microglia activation
[23] = dose response, fibrin-induced microglia activation

Nc1c(CC(=O)O)cccc1C(=O)c1ccc(Br)cc1 [Bromfenac]
inhibition at 10 µM [1, 6]: 0%
Fibrin % cell toxicity (primary rat microglia [2]; [7]): 1%
inhibition at 10 µM [3, 8]: -12%
LPS % cell toxicity (primary rat microglia [4]; [9]): 0%
Quadrant (FIG. 5b) ([5]; primary HTS, 10 μM): Q4

CC[C@H](C)[C@H](N)C(=O)O [L-Isoleucine]
inhibition at 10 µM ([1]; 48 h, primary microglia HTS, LPS stimulation, activation = cell size >800 μm2): 17%
Fibrin % cell toxicity (primary rat microglia [2]; primary microglia HTS, fibrin stimulation, toxicity = cell size <150 μm2): 0%
inhibition at 10 µM ([3]; primary microglia HTS, fibrin stimulation, activation = cell size >800 μm2): -35%
LPS % cell toxicity (primary rat microglia [4]; primary microglia HTS, LPS stimulation, toxicity = cell size <150 μm2): 0%
Quadrant (FIG. 5b) [5, 10]: Q4

CC(C)C[C@H](NC(=O)[C@@H](Cc1c[nH]c2ccccc12)NC(=O)[C@H](Cc1ccc(O)cc1)NC(=O)[C@H](CO)NC(=O)[C@H](Cc1c[nH]c2ccccc12)NC(=O)[C@H](Cc1c[nH]cn1)NC(=O)[C@@H]1CCC(=O)N1)C(=O)N[C@@H](CCCNC(=N)N)C(=O)N1CCC[C@H]1C(=O)NCC(N)=O [Triptorelin]
LPS % inhibition [1, 11]: 4%
Fibrin % cell toxicity (primary rat microglia [2]; [12]): 1%
Fibrin % inhibition [3, 13]: −15%
LPS % cell toxicity (primary rat microglia [4]; [14]): 0%
Quadrant (FIG. 5b) [5, 15]: Q4

COc1cc(O)c(C(=O)c2ccccc2)cc1S(=O)(=O)O [Sulisobenzone]
inhibition at 10 µM [1, 11]: -2%
Fibrin % cell toxicity (primary rat microglia [2]; [12]): 0%
inhibition at 10 µM [3, 13]: -19%
LPS % cell toxicity (primary rat microglia [4]; [14]): 0%
Quadrant (FIG. 5b) [5, 15]: Q4

O=[N+]([O-])c1ccc([As](=O)(O)O)cc1 [Nitarsone]
LPS % inhibition [1, 16]: 19%
Fibrin % cell toxicity (primary rat microglia [2]; [17]): 1%
Fibrin % inhibition [3, 18]: −3%
LPS % cell toxicity (primary rat microglia [4]; [19]): 0%
Quadrant (FIG. 5b) [5, 10]: Q4

CC1(C)O[C@@H]2C[C@H]3[C@@H]4CCC5=CC(=O)C=C[C@]5(C)[C@H]4[C@@H](O)C[C@]3(C)[C@]2(C(=O)CO)O1 [Desonide]
inhibition at 10 µM [1, 20]: 112%
Fibrin % cell toxicity (primary rat microglia [2]; [17]): 17%
inhibition at 10 µM [3, 18]: 108%
LPS % cell toxicity (primary rat microglia [4]; [19]): 5%
Quadrant (FIG. 5b) [5, 10]: Q2

COc1ccc(O)c(C(C)(C)C)c1 [Butylated Hydroxyanisole]
LPS % inhibition [1, 6]: 26%
Fibrin % cell toxicity (primary rat microglia [2]; [7]): 1%
Fibrin % inhibition [3, 8]: −17%
LPS % cell toxicity (primary rat microglia [4]; [9]): 0%
Quadrant (FIG. 5b) ([5]; primary HTS, 10 μM): Q4

Mepartricin
LPS % inhibition [1, 16]: −1%
Fibrin % cell toxicity (primary rat microglia [2]; [17]): 1%
Fibrin % inhibition [3, 18]: 6%
LPS % cell toxicity (primary rat microglia [4]; [19]): 0%
Quadrant (FIG. 5b) [5, 10]: Q4

CC12CC3CC(C)(C1)CC(N)(C3)C2 [Memantine]
inhibition at 10 µM [1, 20]: 5%
Fibrin % cell toxicity (primary rat microglia [2]; [17]): 0%
inhibition at 10 µM [3, 18]: 2%
LPS % cell toxicity (primary rat microglia [4]; [19]): 0%
Quadrant (FIG. 5b) [5, 10]: Q4

Tyrothricin [reference compound]
pIC50 [1, 21]: 6.30
pIC50 [1, 22]: 6.30
LPS % inhibition [1, 16]: 102%
Fibrin % cell toxicity (primary rat microglia [2]; [17]): 2%
pIC50 [3, 21]: 5.52
pIC50 [3, 23]: 5.52
Fibrin % inhibition [3, 18]: 89%
LPS % cell toxicity (primary rat microglia [4]; [19]): 2%
Hit [5]: HIT (Hits were defined as molecules that exhibited greater than 50% inhibition of either fibrin or LPS activation)
Quadrant (FIG. 5b) ([5]; Table 1, screen at 10 μM): Q2
Quadrant (FIG. 5b) [5, 10]: Q2

Cc1onc(-c2ccccc2Cl)c1C(=O)N[C@@H]1C(=O)N2[C@@H]1SC(C)(C)[C@@H]2C(=O)O [Cloxacillin]
inhibition at 10 µM [1, 6]: 17%
Fibrin % cell toxicity (primary rat microglia [2]; [7]): 1%
inhibition at 10 µM [3, 8]: -13%
LPS % cell toxicity (primary rat microglia [4]; [9]): 1%
Quadrant (FIG. 5b) ([5]; primary HTS, 10 μM): Q4

Cc1nnc(SCC2=C(C(=O)O)N3C(=O)[C@@H](NC(=O)Cn4cnnn4)[C@H]3SC2)s1 [Cefazolin]
inhibition at 10 µM [1, 6]: 11%
Fibrin % cell toxicity (primary rat microglia [2]; [7]): 1%
inhibition at 10 µM [3, 8]: 0%
LPS % cell toxicity (primary rat microglia [4]; [9]): 0%
Quadrant (FIG. 5b) ([5]; primary HTS, 10 μM): Q4

CO/N=C(\C(=O)N[C@@H]1C(=O)N2C(C(=O)OCOC(=O)C(C)(C)C)=C(/C=C\c3scnc3C)CS[C@H]12)c1csc(N)n1 [Cefditorin Pivoxil]
LPS % inhibition [1, 6]: 21%
Fibrin % cell toxicity (primary rat microglia [2]; [7]): 1%
Fibrin % inhibition [3, 8]: 2%
LPS % cell toxicity (primary rat microglia [4]; [9]): 1%
Quadrant (FIG. 5b) ([5]; primary HTS, 10 μM): Q4

CC(=O)N[C@H]1[C@H]([C@H](O)[C@H](O)CO)OC(O)(C(=O)O)C[C@@H]1O (some centres unmarked) [N-acetylneuramic Acid, Aceneuramic Acid]
LPS % inhibition [1, 16]: 19%
Fibrin % cell toxicity (primary rat microglia [2]; [17]): 1%
Fibrin % inhibition [3, 18]: −9%
LPS % cell toxicity (primary rat microglia [4]; [19]): 1%
Quadrant (FIG. 5b) [5, 10]: Q4

Cc1ncc([N+](=O)[O-])n1CC(O)CCl (centres unmarked) [Ornidazole]
inhibition at 10 µM [1, 20]: 12%
Fibrin % cell toxicity (primary rat microglia [2]; [17]): 0%
inhibition at 10 µM [3, 18]: -22%
LPS % cell toxicity (primary rat microglia [4]; [19]): 0%
Quadrant (FIG. 5b) [5, 10]: Q4

Capreomycin Sulfate
LPS % inhibition [1, 6]: 3%
Fibrin % cell toxicity (primary rat microglia [2]; [7]): 1%
Fibrin % inhibition [3, 8]: −32%
LPS % cell toxicity (primary rat microglia [4]; [9]): 0%
Quadrant (FIG. 5b) ([5]; primary HTS, 10 μM): Q4

C=CCC1(C(C)CCC)C(=O)N=C(S)NC1=O (centres unmarked) [Thiamylal]
inhibition at 10 µM [1, 11]: 26%
Fibrin % cell toxicity (primary rat microglia [2]; [12]): 0%
inhibition at 10 µM [3, 13]: -1%
LPS % cell toxicity (primary rat microglia [4]; [14]): 0%
Quadrant (FIG. 5b) [5, 15]: Q4

CC(C(=O)O)c1ccc(CC2CCCC2=O)cc1 (centres unmarked) [Loxoprofen]
inhibition at 10 µM [1, 20]: 10%
Fibrin % cell toxicity (primary rat microglia [2]; [17]): 1%
inhibition at 10 µM [3, 18]: -19%
LPS % cell toxicity (primary rat microglia [4]; [19]): 0%
Quadrant (FIG. 5b) [5, 10]: Q4

Clc1cc(Cl)c(OCC#CI)cc1Cl [Haloprogin]
inhibition at 10 µM [1, 20]: 106%
Fibrin % cell toxicity (primary rat microglia [2]; [17]): 42%
inhibition at 10 µM [3, 18]: 78%
LPS % cell toxicity (primary rat microglia [4]; [19]): 70%
Quadrant (FIG. 5b) [5, 10]: Q2

COc1ccc(OC)c(C(O)C(C)N)c1 (centres unmarked) [Methoxamine]
inhibition at 10 µM [1, 20]: 1%
Fibrin % cell toxicity (primary rat microglia [2]; [17]): 1%
inhibition at 10 µM [3, 18]: 3%
LPS % cell toxicity (primary rat microglia [4]; [19]): 0%
Quadrant (FIG. 5b) [5, 10]: Q4

CCCc1nc2c(C)cc(-c3nc4ccccc4n3C)cc2n1Cc1ccc(-c2ccccc2C(=O)O)cc1 [Telmisartan]
inhibition at 10 µM [1, 11]: -2%
Fibrin % cell toxicity (primary rat microglia [2]; [12]): 0%
inhibition at 10 µM [3, 13]: -24%
LPS % cell toxicity (primary rat microglia [4]; [14]): 0%
Quadrant (FIG. 5b) [5, 15]: Q4

C[N+]1(C)CCCC(OC(=O)C(O)(c2ccccc2)c2ccccc2)C1 (centres unmarked) [Mepenzolate]
inhibition at 10 µM [1, 20]: 34%
Fibrin % cell toxicity (primary rat microglia [2]; [17]): 1%
inhibition at 10 µM [3, 18]: 45%
LPS % cell toxicity (primary rat microglia [4]; [19]): 1%
Quadrant (FIG. 5b) [5, 10]: Q4

COc1ccc(CCN2CCC(Nc3nc4ccccc4n3Cc3ccc(F)cc3)CC2)cc1 [Astermizole]
LPS % inhibition [1, 16]: 69%
Fibrin % cell toxicity (primary rat microglia [2]; [17]): 1%
Fibrin % inhibition [3, 18]: 10%
LPS % cell toxicity (primary rat microglia [4]; [19]): 2%
Quadrant (FIG. 5b) [5, 10]: Q1

Clc1ccc(CCC(Cn2ccnc2)Sc2c(Cl)cccc2Cl)cc1 (centres unmarked) [Butoconazole]
inhibition at 10 µM [1, 6]: 10%
Fibrin % cell toxicity (primary rat microglia [2]; [7]): 0%
inhibition at 10 µM [3, 8]: -51%
LPS % cell toxicity (primary rat microglia [4]; [9]): 0%
Quadrant (FIG. 5b) ([5]; primary HTS, 10 μM): Q4

O=[N+]([O-])OCC(CO[N+](=O)[O-])O[N+](=O)[O-] [Nitroglycerin]
inhibition at 10 µM [1, 20]: 17%
Fibrin % cell toxicity (primary rat microglia [2]; [17]): 1%
inhibition at 10 µM [3, 18]: 2%
LPS % cell toxicity (primary rat microglia [4]; [19]): 1%
Quadrant (FIG. 5b) [5, 10]: Q4

CCCCCCc1ccc(O)cc1O.Nc1c2ccccc2nc2ccccc12 [Acrisorcin, reference compound]
IC50 ([1]; LPS-induced microglia activation, dose response, read-out: LPS IC50 (uM) (Suppl. Table 7)): 5 µM
pIC50 [1, 21]: 5.30
pIC50 [1, 22]: 5.30
LPS % inhibition [1, 16]: 113%
Fibrin % cell toxicity (primary rat microglia [2]; [17]): 2%
pIC50 [3, 21]: 5.15
pIC50 [3, 23]: 5.15
IC50 ([3]; fibrin-induced microglia activation, dose response, read-out: Fibrin IC50 (uM) (Suppl. Table 7)): 7 µM
Fibrin % inhibition [3, 18]: 87%
LPS % cell toxicity (primary rat microglia [4]; [19]): 52%
IC50 (primary rat microglia [4]; read-out: Cell Toxicity IC50 (uM) [LPS assay], LPS assay): 6 µM
Hit [5]: HIT (Hits were defined as molecules that exhibited greater than 50% inhibition of either fibrin or LPS activation)
Quadrant (FIG. 5b) [5, 15]: Q2
Quadrant (FIG. 5b) ([5]; Table 1, screen at 10 μM): Q2
Cherry-picked Hit (Suppl. Table 7) ([5]; hit classification in microglia HTS): HIT (Hits were defined as molecules that exhibited greater than 50% inhibition of either fibrin or LPS activation)
Quadrant (FIG. 5b) [5, 10]: Q2

N=C(NCCCCCCNC(=N)NC(=N)Nc1ccc(Cl)cc1)NC(=N)Nc1ccc(Cl)cc1
LPS % inhibition [1, 16]: 69%
Fibrin % cell toxicity (primary rat microglia [2]; [17]): 1%
Fibrin % inhibition [3, 18]: 15%
LPS % cell toxicity (primary rat microglia [4]; [19]): 8%
Quadrant (FIG. 5b) [5, 10]: Q1
